In ChEMBL document CHEMBL1129930, “Analogues of methotrexate in rheumatoid arthritis. 2. Effects of 5-deazaaminopterin, 5,10-dideazaaminopterin, and analogues on type II collagen-induced arthritis in mice” (J Med Chem, 1997):

What was measured:
[1] = system: Mus musculus; test: Tested for antiinflammatory activity on mouse type II collagen arthritis as Paw swelling of all animals in each group on day 23 at intraperitoneal dose of 0.50 mg/kg; type: functional; conditions: dose 0.5 mg/kg
[2] = system: Mus musculus; test: Tested for antiinflammatory activity on mouse type II collagen arthritis as Paw swelling of all animals in each group on day 37 at intraperitoneal dose of 0.50 mg/kg; type: functional; conditions: dose 0.5 mg/kg
[3] = system: Mus musculus; test: Tested for antiinflammatory activity on mouse type II collagen arthritis as Paw swelling of all animals in each group on day 44 at intraperitoneal dose of 1 mg/kg; type: functional
[4] = system: Mus musculus; test: Tested for antiinflammatory activity on mouse type II collagen arthritis as Paw swelling of all animals in each group on day 30 at intraperitoneal dose of 1 mg/kg; type: functional
[5] = system: Mus musculus; test: Incidence of disease (mouse type II collagen) was scored as the percentage of animals within each experimental group that exhibited joint or limb inflammation on day 37 at intraperitoneal dose of 1 mg/kg (deaths observed at 1.5 mg/kg); type: functional
[6] = system: Mus musculus; test: Tested for antiinflammatory activity on mouse type II collagen arthritis as Paw swelling of all animals in each group on day 37 at intraperitoneal dose of 0.25 mg/kg; type: functional
[7] = system: Mus musculus; test: Incidence of disease (mouse type II collagen) was scored as the percentage of animals within each experimental group that exhibited joint or limb inflammation on day 30 at intraperitoneal dose of 0.25 mg/kg (deaths observed at 1.5 mg/kg); type: functional
[8] = system: Mus musculus; test: Tested for antiinflammatory activity on mouse type II collagen arthritis as Paw swelling of all animals in each group on day 37 at intraperitoneal dose of 1 mg/kg; type: functional
[9] = system: Mus musculus; test: Incidence of disease (mouse type II collagen) was scored as the percentage of animals within each experimental group that exhibited joint or limb inflammation on day 23 at intraperitoneal dose of 1 mg/kg (deaths observed at 1.5 mg/kg); type: functional
[10] = Concentration required to inhibit the growth of chang liver cells.; type: functional; conditions: Homo sapiens
[11] = system: Mus musculus; test: Incidence of disease (mouse type II collagen) was scored as the percentage of animals within each experimental group that exhibited joint or limb inflammation on day 37 at intraperitoneal dose of 0.50 mg/kg (deaths observed at 1.5 mg/kg); type: functional
[12] = system: Mus musculus; test: Incidence of disease (mouse type II collagen) was scored as the percentage of animals within each experimental group that exhibited joint or limb inflammation on day 44 at intraperitoneal dose of 1 mg/kg (deaths observed at 1.5 mg/kg); type: functional
[13] = system: Mus musculus; test: Incidence of disease (mouse type II collagen) was scored as the percentage of animals within each experimental group that exhibited joint or limb inflammation on day 23 at intraperitoneal dose of 0.50 mg/kg (deaths observed at 1.5 mg/kg); type: functional
[14] = system: Mus musculus; test: Tested for antiinflammatory activity on mouse type II collagen arthritis as Paw swelling of all animals in each group on day 30 at intraperitoneal dose of 0.50 mg/kg; type: functional; conditions: dose 0.5 mg/kg
[15] = system: Mus musculus; test: Incidence of disease (mouse type II collagen) was scored as the percentage of animals within each experimental group that exhibited joint or limb inflammation on day 30 at intraperitoneal dose of 1 mg/kg (deaths observed at 1.5 mg/kg); type: functional
[16] = system: Mus musculus; test: Tested for antiinflammatory activity on mouse type II collagen arthritis as Paw swelling of all animals in each group on day 44 at intraperitoneal dose of 0.50 mg/kg; type: functional; conditions: dose 0.5 mg/kg
[17] = system: Mus musculus; test: Tested for antiinflammatory activity on mouse type II collagen arthritis as Paw swelling of all animals in each group on day 44 at intraperitoneal dose of 0.25 mg/kg; type: functional
[18] = system: Mus musculus; test: Incidence of disease (mouse type II collagen) was scored as the percentage of animals within each experimental group that exhibited joint or limb inflammation on day 30 at intraperitoneal dose of 0.50 mg/kg (deaths observed at 1.5 mg/kg); type: functional
[19] = system: L1210; test: Concentration required to inhibit the growth of L1210 cells.; type: functional, cell-based; conditions: Mus musculus
[20] = system: Mus musculus; test: Incidence of disease (mouse type II collagen) was scored as the percentage of animals within each experimental group that exhibited joint or limb inflammation on day 44 at intraperitoneal dose of 0.50 mg/kg (deaths observed at 1.5 mg/kg); type: functional
[21] = system: Mus musculus; test: Tested for antiinflammatory activity on mouse type II collagen arthritis as Paw swelling of all animals in each group on day 23 at intraperitoneal dose of 0.25 mg/kg; type: functional
[22] = system: Mus musculus; test: Incidence of disease (mouse type II collagen) was scored as the percentage of animals within each experimental group that exhibited joint or limb inflammation on day 37 at intraperitoneal dose of 0.25 mg/kg (deaths observed at 1.5 mg/kg); type: functional
[23] = system: Mus musculus; test: Incidence of disease (mouse type II collagen) was scored as the percentage of animals within each experimental group that exhibited joint or limb inflammation on day 23 at intraperitoneal dose of 0.25 mg/kg (deaths observed at 1.5 mg/kg); type: functional
[24] = system: Mus musculus; test: Incidence of disease (mouse type II collagen) was scored as the percentage of animals within each experimental group that exhibited joint or limb inflammation on day 44 at intraperitoneal dose of 0.25 mg/kg (deaths observed at 1.5 mg/kg); type: functional
[25] = system: Mus musculus; test: Tested for antiinflammatory activity on mouse type II collagen arthritis as Paw swelling of all animals in each group on day 30 at intraperitoneal dose of 0.25 mg/kg; type: functional

SMILES: CCc1c(CNc2ccc(C(=O)NC(CCC(=O)O)C(=O)O)cc2)cnc2nc(N)nc(N)c12 (stereo not given)
- Paw swelling [1]: 2.31 mm
- Paw swelling [2]: 2.42 mm
- Paw swelling [3]: 2.29 mm
- Paw swelling [4]: 2.19 mm
- Animals [5]: 62%
- Paw swelling [6]: 2.34 mm
- Animals [7]: 0%
- Paw swelling [8]: 2.32 mm
- Animals [9]: 12%
- IC50 [10]: 126 nM
- Animals [11]: 86%
- Animals [12]: 62%
- Animals [13]: 43%
- Paw swelling [14]: 2.38 mm
- Animals [15]: 25%
- Paw swelling [16]: 2.43 mm
- Paw swelling [17]: 2.33 mm
- Animals [18]: 57%
- IC50 [19]: 1.9 nM
- Animals [20]: 71%
- Paw swelling [21]: 2.25 mm
- Animals [22]: 50%
- Animals [23]: 38%
- Animals [24]: 62%
- Paw swelling [25]: 2.22 mm
